We go through 1 compound from patent US20250288554A1, “PROPHYLACTIC OR THERAPEUTIC AGENT FOR NON-ALCOHOLIC STEATOHEPATITIS-DERIVED HEPATOCARCINOMA” (SEAKNIT Biological Technology Co., Ltd., priority 2022, published 2025).

Molecules are shown by their SMILES. Entries after “also recorded” stand apart in the source; their conditions may differ.

For one test, the system named is CD36 gene expression. Description: Suppression effect of taxifolin on CD36 gene expression in the liver tissue of high-fat diet-induced model mice (real-time PCR). It counts as in vivo, mouse. Conditions: C57BL/6J male mice, corrected by GAPDH. The text has this: In Test Example 1, the taxifolin's action on the CD36 gene expression in the liver tissue was studied using the high-fat diet-induced model mice.
The C57BL/6J male mice (7 weeks old: CLEA Japan, Inc.) were acclimated for one week with a normal solid diet (MF: Oriental Yeast Co., Ltd.) and with freely available drinking water.
The 8 weeks old mice after the acclimation were divided into 4 groups with 5 mice each, namely, the group of those raised with a normal solid diet for 12 weeks until 20 weeks old (hereinafter, “ND Group”), the group raised with a high fat diet (HFD-60 (506 kcal/100 g; 60% fat content in terms of energy rate): Oriental Yeast Co., Ltd.) (hereinafter, “HFD Group”), the group raised with the high fat diet containing 1% by weight of taxifolin (hereinafter, “HFD+1% TX-administered Group”), and the group raised with the high fat diet containing 3% by weight of taxifolin (hereinafter, “HFD+3% TX-administered Group”).
The mice raised until 20 weeks old were anesthetized with ether, and after they were euthanized by cervical dislocation, the liver of each individual was removed. […]
The mRNA expression amount of CD36 was corrected by the expression amount of glyceraldehyde-3-phosphate dehydrogenase (GAPDH), and this was comparatively quantified using the ΔΔCt method. […]
Background: In qPCR the cycle at which signal appears reflects the starting amount.

The next test relates to MC4R deficient mouse. The experiment in a line: Prophylactic effect of taxifolin on hepatocarcinoma in MC4R deficient mouse loaded with a high fat diet. It counts as in vivo. Conditions: high fat diet containing 3% of taxifolin from 20 to 50 weeks old, vs reference group. The text has this:
In Test Example 3, the taxifolin's action on the hepatocarcinoma by using the melanocortin-4 receptor deficient mouse (hereinafter, “MC4R deficient mouse”) loaded with a high fat diet. On the basis of the description in JP 2020-065454 A and JP 2017-006022 A, the MC4R deficient mouse provided by Joel K. Elmquist at the Medical Center in Texas University was used (Cell, 2005; 123(3): 493-505). The genetic background of the MC4R deficient mouse is the C57BL/6J mouse. These mice were kept under the controlled condition of temperature, humidity, and lighting time (12 hours cycle of dark and bright), unless otherwise specifically noted. After weaning (4 weeks after the birth), they were raised with a high fat diet (D12492 (524 kcal/100 g; 60% fat content in terms of energy rate); Research Diets, Inc.) and with freely available drinking water. All the MC4R mice loaded with the high fat diet had the NASH-like symptom by 20 weeks old; it has been known that they develop hepatocarcinoma thereafter (Am. J. Pathol., 2011; 179(5):2454-2463). The MC4R deficient 20 weeks old mice loaded with the high fat diet were divided into two groups; the reference group (n=13) that is continued to be fed with the same high fat diet until 50 weeks old, and the taxifolin-administered group (n=12) that is fed with the high fat diet containing 3% of taxifolin. The mice raised until 50 weeks old were euthanized by deep anesthesia using three mixed anesthetic agents, and then, the liver of each individual was removed. The number of the precancerous symptoms (Foci) in the removed liver, the number of the tumors having the precancerous symptom clustered, and the size of the tumor were measured. The statistical analysis was conducted using Student t-test. In FIG. 3, the number of the precancerous symptoms, the number of the tumors having the precancerous symptom clustered, and the size of the tumor are expressed by the average value of each group±standard error.

Another test concerns HepG2 cell. Description: Taxifolin's suppressing action on fatty acid capturing in HepG2 cells (Oil Red O lipid droplet staining). It counts as cell-based, human. Conditions: 24 hours; for capturing amount of palmitic acid by the HepG2 cells: 400 μm palmitic acid, vs Group B without taxifolin. The procedure: In Test example 2, the taxifolin's action on fatty acid capturing was studied by using the HepG2 cell, which is the cell strain derived from human hepatocarcinoma.
The HepG2 cells were inoculated with the density of 0.2×10^6 cells/well on the plate having 24 wells, and they were cultured using the 10% FBS-containing DMEM medium until the HepG2 cells covered 70 to 80% of the surface in the culture vessel. The HepG2 cells cultured in the culture medium were washed with the phosphate buffer (PBS), then cultured for 24 hours in the serum-free medium containing 400 μm of palmitic acid, taxifolin with various concentrations, and 1% BSA, with n=6 in each Group A to E, as described in Table 2.
The glucose concentration contained in the culture medium and in the serum-free medium were made 0%, 0.1% (low glucose), or 0.45% (high glucose).
The HepG2 cells that had been cultured in the serum-free medium for 24 hours were immobilized by 4% paraformaldehyde after washing with PBS. The resulting immobilized HepG2 cells were treated with 60% isopropanol, and then the lipid drops in the cells were stained using Oil Red O (Wako Pure Chemical Industries, Ltd.). Thereafter, it was washed with 60% isopropanol and then with PBS. The resulting washed HepG2 cells were treated with 100% isopropanol to elute the Oil Red O out. The resulting eluted Oil Red O was recovered in the plate with 96 wells, and then the absorbance (550 nm) was measured using the microplate reader (Multiscan SkyHigh; Thermo Fisher Scientific, Inc.).
The statistical analysis was conducted using Student t-test.
In FIG. 2, the capturing amount of the fatty acid is expressed by the average value of each group±standard error.
FIG. 2 indicates the capturing amount of the fatty acid in the HepG2 cells in each Group. The capturing amount in the HepG2 cells in each Group A to E is expressed by the percentage relative to Group A.

`O=C1c2c(O)cc(O)cc2O[C@H](c2ccc(O)c(O)c2)[C@H]1O` [taxifolin]: the “mRNA expression amount of CD36 in the liver tissue” value in the test with CD36 gene expression (high fat diet containing 1% by weight of taxifolin for 12 weeks (HFD+1% TX-administered Group) vs HFD Group) is given as “significantly decreased”. Further, the “mRNA expression amount of CD36 in the liver tissue” value in the test with CD36 gene expression (high fat diet containing 3% by weight of taxifolin for 12 weeks (HFD+3% TX-administered Group) vs HFD Group) is given as “significantly decreased; also recorded: suppressed to the same level as the ND Group”. Also, in the test with MC4R deficient mouse, the “number of the precancerous symptoms (Foci) in the liver” value is listed as “decreased drastically”; the “number of the tumors having the precancerous symptom clustered” value is “decreased drastically”; the “size of the tumor between 1 and 5 mm” value was “decreased significantly”. For the same compound, in the test with HepG2 cell (HepG2 cells, palmitic acid, lowest concentration tested), the “concentration at which taxifolin suppressed the fatty acid capturing in the liver cells” value is 0.1 nM. Besides, the “capturing amount of palmitic acid by the HepG2 cells” value with HepG2 cell (high glucose (0.45%), taxifolin 0.1 nM to 1 μM) is “same tendency”. In addition, in the test on HepG2 cell (low glucose (0.1%), taxifolin 0.1 nM or more), the “capturing amount of palmitic acid by the HepG2 cells” value was “significantly decreased”.
